Assay results as given in patent US9359338B2, “Cyclopropanecarboxamido-substitute aromatic compounds as anti-tumor agents” (Crown Bioscience Inc. (Taiwan), priority 2012, dated 2016).
Where two headings read alike, the source gives them in different places.

What was measured:
PLC-PRF-5 cells = assay: Inhibition of proliferation of PLC-PRF-5 cells (ATPlite); assay type: cell-based; conditions: Homo sapiens
Summary of the method: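 PLC-PRF-5 cells in DMEM/10% FBS, seeded 2 h before compound; 8-point 3-fold dilutions from 30 μM final top, 0.3% DMSO. After 96 h at 37 °C, 5% CO2, ATP content read by ATPlite luminescence; IC50 calculated.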

B-Raf kinase = B-Raf kinase (Homo sapiens (Human), UniProt P15056); assay: Inhibitory activity at B-Raf kinase (ADP-GLO assay); assay type: biochemical
B-Raf kinase, sequence (P15056 416-766): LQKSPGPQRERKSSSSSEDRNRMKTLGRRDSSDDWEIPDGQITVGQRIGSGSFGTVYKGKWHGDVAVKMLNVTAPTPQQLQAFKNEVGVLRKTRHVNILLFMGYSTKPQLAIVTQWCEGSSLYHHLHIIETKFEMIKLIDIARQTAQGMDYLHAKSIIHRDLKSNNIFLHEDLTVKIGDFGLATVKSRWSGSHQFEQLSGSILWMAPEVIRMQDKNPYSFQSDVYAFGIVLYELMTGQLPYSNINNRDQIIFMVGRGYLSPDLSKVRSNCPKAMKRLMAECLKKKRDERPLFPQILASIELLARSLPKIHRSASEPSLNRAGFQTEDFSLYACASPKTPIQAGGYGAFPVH
Description: Inhibitory Activity of Compounds at B-Raf Kinase
• [Experimental method]: Use ADP-GLO™ assay kit from Promega to evaluate the inhibitory activity of compounds at B-Raf • [Instrument]: PerKinElmer's ENVISION plate reader • [Material]: Optiplate-384 well plate (PerKinElmer), kinase buffer (50 mM Hepes pH7.5, 1 mM EGTA, 2 mM DTT, 10 mM Mg^2+, 0.05% BSA), B-Raf kinase (Millipore, catalogue #14-530-K), GST-MEK1 substrate (Carna, catalogue #07-141-10), Super pure ATP (Promega), ADP-GLO™ assay kit (Promega, catalogue # V9102), DMSO (Sigma, catalogue #34869), purified water (Millipore, type: Milli-Q). • [Study conditions]: Mix B-Raf kinase (final concentration: 5 nM) and compound (DMSO final concentration: 0.25%) and preincubate at 30° C. for 20 min, then add ATP (final concentration: 6 μM) and reaction substrate (final concentration: 30 nM), React for 2 hrs at 30° C. After reaction, add ADP-GLO™ reagent, react for 40 min at room temperature, then add ADP-GLO™ detecting agent, react for 30 min at room temperature. After that, use ENVSION to measure the […]. • [Samples]: Compounds in the examples and Sorafenib (positive control) • [Data analysis]: Use CBIS data analysis software to calculate IC50 values

KDR kinase (790-1356 AA) = KDR kinase (790-1356 AA) (Homo sapiens (Human), UniProt P35968); assay: Inhibitory activity at KDR kinase (Lance Ultra Ulight-TK assay); assay type: biochemical
KDR kinase (790-1356 AA), sequence (P35968 790-1356): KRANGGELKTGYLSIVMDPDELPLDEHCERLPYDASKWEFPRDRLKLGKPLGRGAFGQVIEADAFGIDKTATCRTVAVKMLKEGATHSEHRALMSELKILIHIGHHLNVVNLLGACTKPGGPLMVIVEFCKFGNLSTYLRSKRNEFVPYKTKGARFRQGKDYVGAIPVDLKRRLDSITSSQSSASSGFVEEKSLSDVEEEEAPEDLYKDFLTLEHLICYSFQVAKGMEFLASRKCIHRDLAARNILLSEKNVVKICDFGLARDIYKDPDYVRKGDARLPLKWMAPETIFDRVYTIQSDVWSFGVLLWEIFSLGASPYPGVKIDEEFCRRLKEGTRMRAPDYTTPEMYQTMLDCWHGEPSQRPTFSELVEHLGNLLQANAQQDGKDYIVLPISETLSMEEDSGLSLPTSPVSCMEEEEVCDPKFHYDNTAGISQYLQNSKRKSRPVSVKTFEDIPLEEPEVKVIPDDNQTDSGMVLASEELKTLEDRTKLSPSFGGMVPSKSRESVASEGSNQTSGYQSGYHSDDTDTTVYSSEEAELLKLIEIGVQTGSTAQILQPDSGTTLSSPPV
Summary of the method: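 TR-FRET (Eu-anti-phosphotyrosine PT66) with 20 nM KDR preincubated with compound 20 min at 30 °C in HEPES pH 7.5 buffer with Mg2+/Mn2+, 0.5% DMSO.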

pERK in MDA-MB-231 cells = assay: Inhibitory activity at pERK (In Cell Western, MDA-MB-231 cells); assay type: cell-based; conditions: Homo sapiens
Summary of the method: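 MDA-MB-231 cells were treated 2 h at 37 °C with 8 compound concentrations in 3-fold dilutions from 30 μM top (0.3% DMSO, DMEM with 0.1% BSA). Cells were then fixed, methanol-permeabilized and immunostained for pERK with PI counterstain. Fluorescence was read on Acumen and IC50 calculated.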

[1] = PLC-PRF-5, PLC-PRF-5 cells, read-out: PLC-PRF-5 cell proliferation IC50
[2] = MDA-MB-231, MDA-MB-231 cells, read-out: MDA-MB-231 pERK IC50

Structure (SMILES)	IC50 (PLC-PRF-5 cells; [1]) [nM]	IC50 (B-Raf kinase) [nM]	IC50 (KDR kinase (790-1356 AA)) [nM]	IC50 (pERK in MDA-MB-231 cells; [2]) [nM]	IC50 (PLC-PRF-5 cells; PLC-PRF-5, read-out: PLC-PRF-5 cell proliferation IC50) [nM]	IC50 (pERK in MDA-MB-231 cells; MDA-MB-231, read-out: MDA-MB-231 pERK IC50) [nM]
Cc1cc(Oc2cc(NC(=O)C3CC3)ncn2)ccc1NC(=O)Nc1ccc(Cl)c(C(C)(F)F)c1 [Exe. 085]	11000	45	10.7	19.3		
CC(F)(F)c1cc(NC(=O)Nc2ccc(Oc3cc(NC(=O)C4CC4)ncn3)c(F)c2)ccc1Cl [Exe. 105]	1900	153	11.3	85.5		
O=C(Nc1ccc(Oc2cc(NC(=O)C3CC3)ncn2)cc1F)Nc1cc(C(F)(F)F)ccc1F [Exe. 107]	324	31	13.4	20.2		
O=C(Nc1cccc(C(F)(F)F)c1)Nc1ccc(Oc2cc(NC(=O)C3CC3)ncn2)cc1F [Exe. 108]	1610	41	8.6	20		
CC(F)(F)c1ccc(F)c(NC(=O)Nc2ccc(Oc3cc(NC(=O)C4CC4)ncn3)cc2F)c1 [Exe. 109]	274	32	10.9	9.8		
CC(F)(F)c1cc(NC(=O)Nc2ccc(Oc3cc(NC(=O)C4CC4)ncn3)cc2F)ccc1Cl [Exe. 110]	1580	24	7.3	13.4		
Cc1cc(NC(=O)Nc2cc(C(C)(F)F)ccc2F)ccc1Oc1cc(NC(=O)C2CC2)ncn1 [Exe. 116]	125	111	7.9	30.4		
Cc1cc(NC(=O)Nc2ccc(F)c(C(C)(F)F)c2)ccc1Oc1cc(NC(=O)C2CC2)ncn1 [Exe. 118]	706	293	7.4	55.3		
Cc1cc(NC(=O)Nc2cc(C(F)(F)F)ccc2F)cnc1Oc1ccnc(NC(=O)C2CC2)c1 [Exe. 124]	160	10.4	13.8	19.4		
COc1ccc(NC(=O)Nc2cnc(Oc3ccnc(NC(=O)C4CC4)c3)c(C)c2)cc1C(F)(F)F [Exe. 125]	1720	8.6	8.7	4.7		
Cc1cc(NC(=O)Nc2cc(OC(C)C)cc(C(F)(F)F)c2)cnc1Oc1ccnc(NC(=O)C2CC2)c1 [Exe. 126]	2440	61.4	30.2	24.3		
Cc1cc(Oc2ccnc(NC(=O)C3CC3)c2)ncc1NC(=O)Nc1cc(C(F)(F)F)ccc1F [Exe. 127]	642	7.2	11.8	11.6		
Cc1cc(Oc2ccnc(NC(=O)C3CC3)c2)ncc1NC(=O)Nc1cc(C(C)(F)F)ccc1F [Exe. 128]	819	6.2	9.8	38		
CS(=O)(=O)c1cc(NC(=O)Nc2ccc(Oc3ccnc(NC(=O)C4CC4)c3)nc2)cc(C(F)(F)F)c1 [Exe. 130]	4990	29.7	4.6	725		
CN1CCC(Nc2cc(NC(=O)Nc3ccc(Oc4ccnc(NC(=O)C5CC5)c4)nc3)cc(C(F)(F)F)c2)CC1 [Exe. 131]	10500	12.5	6.1	> 1000		
O=C(Nc1ccc(Oc2ccnc(NC(=O)C3CC3)c2)nc1)Nc1cc(N2CCS(=O)(=O)CC2)cc(C(F)(F)F)c1 [Exe. 132]	5910	39	10	341		
N#Cc1ccc(NC(=O)Nc2ccc(Oc3ccnc(NC(=O)C4CC4)c3)cn2)cc1C(F)(F)F [Exe. 133]		25	9.1		1020	23.6
CS(=O)(=O)c1cc(NC(=O)Nc2ccc(Oc3ccnc(NC(=O)C4CC4)c3)cn2)cc(C(F)(F)F)c1 [Exe. 136]	470	29	6.6	46		
O=C(Nc1ccc(Oc2ccnc(NC(=O)C3CC3)c2)cc1)Nc1ccc(Cl)c(C(F)(F)F)c1 [Exe. 137]	5960	11.3	10.2	7.8		
